Reference: ChEMBL document CHEMBL5723582, “Data for DCP probe T-10430” (2024)

Columns and labels:
[1] = target: Prosaposin receptor GPR37 (Homo sapiens) (UniProt O15354); experiment: RLU of GPR37 at 1.0 µM in the […] PRESTO-Tango GPCRome screen; settings: Compound concentration 1.0 uM
[2] = target: Glucose-dependent insulinotropic receptor (Homo sapiens) (UniProt Q8TDV5); experiment: RLU of GPR119 at 1.0 µM in the […] PRESTO-Tango GPCRome screen; settings: Compound concentration 1.0 uM
[3] = target: Trace amine-associated receptor 6 (Homo sapiens) (UniProt Q96RI8); experiment: RLU of TAAR6 at 1.0 µM in the […] PRESTO-Tango GPCRome screen; settings: Compound concentration 1.0 uM
[4] = target: B1 bradykinin receptor (Homo sapiens) (UniProt P46663); experiment: RLU of BDKRB1 at 1.0 µM in the […] PRESTO-Tango GPCRome screen; settings: Compound concentration 1.0 uM
[5] = target: Metabotropic glutamate receptor 5 (Homo sapiens) (UniProt P41594); experiment: RLU of GRM5 at 1.0 µM in the Aequorin PRESTO-Tango GPCRome screen; settings: Compound concentration 1.0 uM
[6] = target: P2Y purinoceptor 12 (Homo sapiens) (UniProt Q9H244); experiment: RLU of P2RY12 at 1.0 µM in the […] PRESTO-Tango GPCRome screen; settings: Compound concentration 1.0 uM
P2Y purinoceptor 12 (Homo sapiens), sequence (Q9H244 whole entry): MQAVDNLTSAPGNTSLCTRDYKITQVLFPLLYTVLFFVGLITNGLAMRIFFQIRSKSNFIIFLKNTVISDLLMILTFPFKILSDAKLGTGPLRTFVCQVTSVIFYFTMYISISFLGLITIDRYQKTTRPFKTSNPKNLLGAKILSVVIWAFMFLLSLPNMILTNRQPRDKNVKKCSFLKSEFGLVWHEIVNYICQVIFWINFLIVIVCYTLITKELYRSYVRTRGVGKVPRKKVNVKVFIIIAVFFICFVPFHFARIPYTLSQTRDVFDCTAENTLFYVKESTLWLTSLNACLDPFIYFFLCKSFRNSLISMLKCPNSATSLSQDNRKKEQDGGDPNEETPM

[7] = target: Kappa-type opioid receptor (Homo sapiens) (UniProt P41145); experiment: RLU of OPRK1 at 1.0 µM in the […] PRESTO-Tango GPCRome screen; settings: Compound concentration 1.0 uM
Kappa-type opioid receptor (Homo sapiens), sequence (P41145 whole entry): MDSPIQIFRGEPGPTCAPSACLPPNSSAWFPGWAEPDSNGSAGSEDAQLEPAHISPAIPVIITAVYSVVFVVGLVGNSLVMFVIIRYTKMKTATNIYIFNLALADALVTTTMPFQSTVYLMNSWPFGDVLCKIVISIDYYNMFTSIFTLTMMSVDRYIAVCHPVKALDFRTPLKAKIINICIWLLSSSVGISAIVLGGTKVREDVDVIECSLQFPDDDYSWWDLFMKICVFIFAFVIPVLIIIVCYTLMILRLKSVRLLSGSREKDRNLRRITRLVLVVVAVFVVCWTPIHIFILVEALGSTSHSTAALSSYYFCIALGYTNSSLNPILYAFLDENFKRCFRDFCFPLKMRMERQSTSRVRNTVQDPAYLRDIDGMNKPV

[8] = target: Probable G-protein coupled receptor 32 (Homo sapiens) (UniProt O75388); experiment: RLU of GPR32 at 1.0 µM in the […] PRESTO-Tango GPCRome screen; settings: Compound concentration 1.0 uM
[9] = target: Prostaglandin D2 receptor 2 (Homo sapiens) (UniProt Q9Y5Y4); experiment: RLU of GPR44 at 1.0 µM in the […] PRESTO-Tango GPCRome screen; settings: Compound concentration 1.0 uM
Prostaglandin D2 receptor 2 (Homo sapiens), sequence (Q9Y5Y4 whole entry): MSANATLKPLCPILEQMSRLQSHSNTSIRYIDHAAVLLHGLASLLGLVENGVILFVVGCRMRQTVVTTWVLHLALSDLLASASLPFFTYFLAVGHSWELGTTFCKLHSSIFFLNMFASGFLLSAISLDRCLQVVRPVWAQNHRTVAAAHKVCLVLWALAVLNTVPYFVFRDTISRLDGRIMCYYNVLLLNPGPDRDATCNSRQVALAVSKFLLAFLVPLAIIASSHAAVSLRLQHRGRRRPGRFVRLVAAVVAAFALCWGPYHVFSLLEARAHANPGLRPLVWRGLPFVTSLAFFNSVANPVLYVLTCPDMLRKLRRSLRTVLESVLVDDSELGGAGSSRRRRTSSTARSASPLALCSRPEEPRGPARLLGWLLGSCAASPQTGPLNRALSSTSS

[10] = target: Beta-1 adrenergic receptor (Homo sapiens) (UniProt P08588); experiment: RLU of ADRB1 at 1.0 µM in the […] PRESTO-Tango GPCRome screen; settings: Compound concentration 1.0 uM
[11] = target: Muscarinic acetylcholine receptor M4 (Homo sapiens) (UniProt P08173); experiment: RLU of CHRM4 at 1.0 µM in the […] PRESTO-Tango GPCRome screen; settings: Compound concentration 1.0 uM
[12] = target: Mas-related G-protein coupled receptor member F (Homo sapiens) (UniProt Q96AM1); experiment: RLU of MRGPRF at 1.0 µM in the […] PRESTO-Tango GPCRome screen; settings: Compound concentration 1.0 uM
Mas-related G-protein coupled receptor member F (Homo sapiens), sequence (Q96AM1 whole entry): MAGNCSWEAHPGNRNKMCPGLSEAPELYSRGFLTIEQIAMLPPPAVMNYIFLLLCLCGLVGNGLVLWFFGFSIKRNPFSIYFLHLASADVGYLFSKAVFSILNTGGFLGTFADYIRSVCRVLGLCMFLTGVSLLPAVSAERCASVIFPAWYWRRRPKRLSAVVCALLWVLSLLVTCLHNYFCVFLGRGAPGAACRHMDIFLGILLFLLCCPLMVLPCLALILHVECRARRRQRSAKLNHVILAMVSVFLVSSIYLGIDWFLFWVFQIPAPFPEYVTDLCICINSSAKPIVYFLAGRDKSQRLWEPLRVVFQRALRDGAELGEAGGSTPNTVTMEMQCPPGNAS

[13] = target: Lysophosphatidic acid receptor 1 (Homo sapiens) (UniProt Q92633); experiment: RLU of LPAR1 at 1.0 µM in the […] PRESTO-Tango GPCRome screen; settings: Compound concentration 1.0 uM
[14] = target: Cannabinoid receptor 1 (Homo sapiens) (UniProt P21554); experiment: RLU of CNR1 at 1.0 µM in the […] PRESTO-Tango GPCRome screen; settings: Compound concentration 1.0 uM
[15] = target: Lysophosphatidic acid receptor 4 (Homo sapiens) (UniProt Q99677); experiment: RLU of LPAR4 at 1.0 µM in the […] PRESTO-Tango GPCRome screen; settings: Compound concentration 1.0 uM
[16] = target: Somatostatin receptor type 4 (Homo sapiens) (UniProt P31391); experiment: RLU of SSTR4 at 1.0 µM in the […] PRESTO-Tango GPCRome screen; settings: Compound concentration 1.0 uM
[17] = target: Adhesion G-protein coupled receptor G2 (Homo sapiens) (UniProt Q8IZP9); experiment: RLU of GPR64 at 1.0 µM in the […] PRESTO-Tango GPCRome screen; settings: Compound concentration 1.0 uM
[18] = target: C-C chemokine receptor type 7 (Homo sapiens) (UniProt P32248); experiment: RLU of CCR7 at 1.0 µM in the […] PRESTO-Tango GPCRome screen; settings: Compound concentration 1.0 uM
[19] = target: G-protein coupled receptor 20 (Homo sapiens) (UniProt Q99678); experiment: RLU of GPR20 at 1.0 µM in the […] PRESTO-Tango GPCRome screen; settings: Compound concentration 1.0 uM
G-protein coupled receptor 20 (Homo sapiens), sequence (Q99678 whole entry): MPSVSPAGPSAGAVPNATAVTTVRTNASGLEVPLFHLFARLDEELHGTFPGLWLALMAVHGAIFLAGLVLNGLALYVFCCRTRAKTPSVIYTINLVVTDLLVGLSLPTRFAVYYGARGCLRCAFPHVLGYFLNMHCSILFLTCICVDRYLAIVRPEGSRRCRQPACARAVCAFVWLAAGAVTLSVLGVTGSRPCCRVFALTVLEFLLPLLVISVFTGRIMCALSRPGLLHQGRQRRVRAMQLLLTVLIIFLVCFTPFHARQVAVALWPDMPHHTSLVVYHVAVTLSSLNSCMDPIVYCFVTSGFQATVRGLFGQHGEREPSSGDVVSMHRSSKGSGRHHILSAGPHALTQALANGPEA

[20] = target: D(4) dopamine receptor (Homo sapiens) (UniProt P21917); experiment: RLU of DRD4 at 1.0 µM in the […] PRESTO-Tango GPCRome screen; settings: Compound concentration 1.0 uM
[21] = target: Calcitonin receptor (Homo sapiens) (UniProt P30988); experiment: RLU of CALCRb at 1.0 µM in the […] PRESTO-Tango GPCRome screen; settings: Compound concentration 1.0 uM
Calcitonin receptor (Homo sapiens), sequence (P30988 whole entry): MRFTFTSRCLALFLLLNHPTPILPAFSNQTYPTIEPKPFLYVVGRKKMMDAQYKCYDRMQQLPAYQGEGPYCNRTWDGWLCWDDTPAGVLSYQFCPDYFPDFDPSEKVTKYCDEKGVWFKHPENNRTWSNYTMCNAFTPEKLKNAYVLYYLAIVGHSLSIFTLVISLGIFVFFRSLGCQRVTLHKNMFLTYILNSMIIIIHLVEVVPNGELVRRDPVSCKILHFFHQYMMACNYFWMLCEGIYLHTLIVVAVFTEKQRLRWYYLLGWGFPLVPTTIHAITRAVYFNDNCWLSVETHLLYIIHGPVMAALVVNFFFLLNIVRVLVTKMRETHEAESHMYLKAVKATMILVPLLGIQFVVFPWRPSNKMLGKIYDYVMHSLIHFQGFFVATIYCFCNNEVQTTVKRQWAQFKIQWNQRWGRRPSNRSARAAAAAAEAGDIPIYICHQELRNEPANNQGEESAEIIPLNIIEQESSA

[22] = target: G-protein coupled receptor 83 (Homo sapiens) (UniProt Q9NYM4); experiment: RLU of GPR83 at 1.0 µM in the […] PRESTO-Tango GPCRome screen; settings: Compound concentration 1.0 uM
[23] = target: Leukotriene B4 receptor 1 (Homo sapiens, UniProt Q15722); experiment: IP-One assay (LTB4R), agonist mode at up to 50 µM; format: functional; parameters: compound concentration < 50 uM
[24] = target: Adrenocorticotropic hormone receptor (Homo sapiens) (UniProt Q01718); experiment: RLU of MC2R at 1.0 µM in the […] PRESTO-Tango GPCRome screen; settings: Compound concentration 1.0 uM
Adrenocorticotropic hormone receptor (Homo sapiens), sequence (Q01718 whole entry): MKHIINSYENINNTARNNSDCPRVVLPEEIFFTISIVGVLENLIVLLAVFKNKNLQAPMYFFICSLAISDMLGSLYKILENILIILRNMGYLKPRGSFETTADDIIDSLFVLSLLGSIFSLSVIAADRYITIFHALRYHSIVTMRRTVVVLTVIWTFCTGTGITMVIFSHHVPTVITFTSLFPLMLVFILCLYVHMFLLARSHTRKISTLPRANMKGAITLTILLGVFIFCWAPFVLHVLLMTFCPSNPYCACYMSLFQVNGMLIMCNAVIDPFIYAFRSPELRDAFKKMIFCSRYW

[25] = target: Neuropeptide Y receptor type 5 (Homo sapiens) (UniProt Q15761); experiment: RLU of NPY5R at 1.0 µM in the […] PRESTO-Tango GPCRome screen; settings: Compound concentration 1.0 uM
[26] = target: D(3) dopamine receptor (Homo sapiens) (UniProt P35462); experiment: RLU of DRD3 at 1.0 µM in the […] PRESTO-Tango GPCRome screen; settings: Compound concentration 1.0 uM
D(3) dopamine receptor (Homo sapiens), sequence (P35462 whole entry): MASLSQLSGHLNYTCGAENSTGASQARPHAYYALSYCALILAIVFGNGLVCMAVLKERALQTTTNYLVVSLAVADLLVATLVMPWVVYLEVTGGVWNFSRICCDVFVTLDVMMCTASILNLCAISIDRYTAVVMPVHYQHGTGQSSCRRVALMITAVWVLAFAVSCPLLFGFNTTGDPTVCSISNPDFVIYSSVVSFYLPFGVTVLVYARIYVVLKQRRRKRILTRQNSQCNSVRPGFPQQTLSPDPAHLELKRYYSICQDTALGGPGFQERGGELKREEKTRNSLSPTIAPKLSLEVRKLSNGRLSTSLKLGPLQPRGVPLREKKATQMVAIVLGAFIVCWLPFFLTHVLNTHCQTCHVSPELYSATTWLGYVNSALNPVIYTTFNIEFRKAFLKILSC

[27] = target: C5a anaphylatoxin chemotactic receptor 1 (Homo sapiens) (UniProt P21730); experiment: RLU of C5A at 1.0 µM in the […] PRESTO-Tango GPCRome screen; settings: Compound concentration 1.0 uM
C5a anaphylatoxin chemotactic receptor 1 (Homo sapiens), sequence (P21730 whole entry): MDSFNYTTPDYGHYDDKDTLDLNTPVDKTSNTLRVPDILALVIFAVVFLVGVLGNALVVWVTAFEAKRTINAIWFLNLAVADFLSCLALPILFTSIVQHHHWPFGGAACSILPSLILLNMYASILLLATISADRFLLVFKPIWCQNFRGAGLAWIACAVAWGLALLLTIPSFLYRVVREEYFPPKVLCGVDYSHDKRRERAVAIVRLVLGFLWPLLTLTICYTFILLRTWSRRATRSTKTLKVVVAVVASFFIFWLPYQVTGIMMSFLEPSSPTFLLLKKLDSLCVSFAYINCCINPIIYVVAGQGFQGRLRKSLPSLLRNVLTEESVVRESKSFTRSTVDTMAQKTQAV

[28] = target: Histamine H2 receptor (Homo sapiens) (UniProt P25021); experiment: RLU of HRH2 at 1.0 µM in the Aequorin PRESTO-Tango GPCRome screen; settings: Compound concentration 1.0 uM
[29] = target: Probable G-protein coupled receptor 63 (Homo sapiens) (UniProt Q9BZJ6); experiment: RLU of GPR63 at 1.0 µM in the […] PRESTO-Tango GPCRome screen; settings: Compound concentration 1.0 uM
Probable G-protein coupled receptor 63 (Homo sapiens), sequence (Q9BZJ6 whole entry): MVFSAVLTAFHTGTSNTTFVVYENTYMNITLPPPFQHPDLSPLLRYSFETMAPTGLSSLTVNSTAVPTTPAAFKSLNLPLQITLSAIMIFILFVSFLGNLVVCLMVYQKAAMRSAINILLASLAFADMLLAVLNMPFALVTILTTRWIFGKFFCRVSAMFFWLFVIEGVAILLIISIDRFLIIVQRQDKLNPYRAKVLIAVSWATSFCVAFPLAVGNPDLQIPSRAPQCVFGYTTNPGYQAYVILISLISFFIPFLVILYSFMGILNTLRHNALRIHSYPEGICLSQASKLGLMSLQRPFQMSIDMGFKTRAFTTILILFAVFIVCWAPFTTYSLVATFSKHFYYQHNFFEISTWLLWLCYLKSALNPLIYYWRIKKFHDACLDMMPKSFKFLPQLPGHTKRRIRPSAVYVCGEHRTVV

[30] = target: 5-hydroxytryptamine receptor 1D (Homo sapiens) (UniProt P28221); experiment: RLU of HTR1D at 1.0 µM in the […] PRESTO-Tango GPCRome screen; settings: Compound concentration 1.0 uM
5-hydroxytryptamine receptor 1D (Homo sapiens), sequence (P28221 whole entry): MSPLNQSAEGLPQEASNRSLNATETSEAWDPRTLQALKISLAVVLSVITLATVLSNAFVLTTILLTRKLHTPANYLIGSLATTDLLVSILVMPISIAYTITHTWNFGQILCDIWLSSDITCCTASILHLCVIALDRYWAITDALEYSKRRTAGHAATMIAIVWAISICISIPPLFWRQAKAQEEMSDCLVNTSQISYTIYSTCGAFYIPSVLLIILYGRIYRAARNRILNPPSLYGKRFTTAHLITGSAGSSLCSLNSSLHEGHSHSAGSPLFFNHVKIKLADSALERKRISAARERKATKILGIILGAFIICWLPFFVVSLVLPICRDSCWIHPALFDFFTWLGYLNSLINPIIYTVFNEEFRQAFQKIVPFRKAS

[31] = target: Follicle-stimulating hormone receptor (Homo sapiens) (UniProt P23945); experiment: RLU of FSHR at 1.0 µM in the […] PRESTO-Tango GPCRome screen; settings: Compound concentration 1.0 uM
[32] = target: Melanocortin receptor 5 (Homo sapiens) (UniProt P33032); experiment: RLU of MC5R at 1.0 µM in the […] PRESTO-Tango GPCRome screen; settings: Compound concentration 1.0 uM
Melanocortin receptor 5 (Homo sapiens), sequence (P33032 whole entry): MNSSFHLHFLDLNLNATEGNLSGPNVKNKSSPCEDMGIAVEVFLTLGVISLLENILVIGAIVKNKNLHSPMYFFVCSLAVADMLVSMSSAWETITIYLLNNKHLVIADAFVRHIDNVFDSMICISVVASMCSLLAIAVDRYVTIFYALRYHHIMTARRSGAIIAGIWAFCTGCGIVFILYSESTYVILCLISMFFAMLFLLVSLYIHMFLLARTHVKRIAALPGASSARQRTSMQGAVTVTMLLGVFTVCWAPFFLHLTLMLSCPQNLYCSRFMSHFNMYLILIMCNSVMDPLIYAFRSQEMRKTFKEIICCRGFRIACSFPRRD

[33] = target: Prostaglandin E2 receptor EP1 subtype (Homo sapiens) (UniProt P34995); experiment: RLU of PTGER1 at 1.0 µM in the […] PRESTO-Tango GPCRome screen; settings: Compound concentration 1.0 uM
Prostaglandin E2 receptor EP1 subtype (Homo sapiens), sequence (P34995 whole entry): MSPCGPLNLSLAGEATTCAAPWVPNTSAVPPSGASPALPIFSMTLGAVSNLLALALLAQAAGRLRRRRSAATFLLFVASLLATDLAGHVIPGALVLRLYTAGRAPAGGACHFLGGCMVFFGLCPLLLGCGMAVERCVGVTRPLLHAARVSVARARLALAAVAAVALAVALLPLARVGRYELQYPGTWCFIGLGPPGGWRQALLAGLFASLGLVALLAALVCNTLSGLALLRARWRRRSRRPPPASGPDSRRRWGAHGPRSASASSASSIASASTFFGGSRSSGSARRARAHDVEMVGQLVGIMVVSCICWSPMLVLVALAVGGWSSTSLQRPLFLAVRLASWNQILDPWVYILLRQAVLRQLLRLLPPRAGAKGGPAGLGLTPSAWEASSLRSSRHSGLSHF

[34] = target: D(1A) dopamine receptor (Homo sapiens) (UniProt P21728); experiment: RLU of DRD1 at 1.0 µM in the […] PRESTO-Tango GPCRome screen; settings: Compound concentration 1.0 uM
[35] = target: Vasoactive intestinal polypeptide receptor 1 (Homo sapiens) (UniProt P32241); experiment: RLU of VIPR1 at 1.0 µM in the […] PRESTO-Tango GPCRome screen; settings: Compound concentration 1.0 uM

## CCCCC(=O)N1CC2(C1)CN(c1ccccc1-c1nnn[nH]1)C2
[1]
  RLU: -1510
[2]
  RLU: 272
[3]
  RLU: -394
[4]
  RLU: -3310
[5]
  RLU: -10100
[6]
  RLU: -34.4
[7]
  RLU: 156
[8]
  RLU: 5660
[9]
  RLU: -285
[10]
  RLU: 19400
[11]
  RLU: -838
[12]
  RLU: -194
[13]
  RLU: 280
[14]
  RLU: -5260
[15]
  RLU: -668
[16]
  RLU: 120
[17]
  RLU: 8730
[18]
  RLU: 342
[19]
  RLU: -1200
[20]
  RLU: -1390
[21]
  RLU: -5810
[22]
  RLU: 834
[23]
  EC50: > 50 µM (not active)
[24]
  RLU: 1070
[25]
  RLU: -14500
[26]
  RLU: 1160
[27]
  RLU: 2280
[28]
  RLU: 84.8
[29]
  RLU: -87.9
[30]
  RLU: -12300
[31]
  RLU: -865
[32]
  RLU: 481
[33]
  RLU: -390
[34]
  RLU: 1630
[35]
  RLU: -7190
